Values of other authors as cited in article PMC6321136, “Combined In Vitro Studies and in Silico Target Fishing for the Evaluation of the Biological Activities of Diphylleia cymosa and Podophyllum hexandrum” (Molecules, 2018).

How the values were obtained:
[1] = parameters: method as in Dar et al. [63]; conditions: ref Dar et al. [63]; cited from earlier work
[2] = system: Agonist, androgen receptor (AR); parameters: method as in PubChem Bioassay AID 743040; conditions: ref PubChem Bioassay AID 743040; cited from earlier work
[3] = system: Antagonist, retinoic acid receptor (RAR); parameters: method as in PubChem Bioassay AID 1159555; conditions: ref PubChem Bioassay AID 1159555; cited from earlier work
[4] = system: Antagonist, thyroid receptor (TR); parameters: method as in PubChem Bioassay AID 743067; conditions: ref PubChem Bioassay AID 743067; cited from earlier work
[5] = system: Chlamydomonas reinhardtii Algae Gravitaxis; parameters: method as in PubChem Bioassay AID 463189; conditions: ref PubChem Bioassay AID 463189; cited from earlier work

COc1cc([C@@H]2c3cc4c(cc3[C@H](O)[C@H]3COC(=O)[C@H]23)OCO4)cc(OC)c1OC [Podophyllotoxin, podophyllotoxin]
IC50 TBARS lipid peroxidation [1]: higher than 250 μg/mL | Exper. Activity [2]: Inactive | Exper. Activity [3]: Active | Exper. Activity [4]: Active | Exper. Activity [5]: Inactive
